Experimental data: patent US9034825B2, “Treatment of myocardial injury with humanin analogs” (Albert Einstein College of Medicine of Yeshiva University, priority 2007, dated 2015)

Experiments:
[1] = system: phospho Akt and ACC in muscle; test: Western blot of skeletal muscle insulin signaling after ICV infusion; assay type: in vivo, rat; conditions: muscle tissues from ICV-infused rats
Description: The indicated tissues were homogenized in 20 mM MOPS, 2 mM EGTA, 5 mM EDTA, 30 mM sodium fluoride, 40 mM beta-glycerophosphate, 10 mM sodium pyrophosphate, 2 mM orthovanadate, 0.5% NP-40 and complete protease inhibitor cocktail (Roche, Indianapolis, Ind., USA) and centrifuged at 12,000 g for 15 min and the supernatant was harvested while carefully avoiding the lipid layer on top. Protein concentration was measured with a BCA protein quantification kit (Pierce, Rockford, Ill., USA). Protein extracts were separated on 4-12% NuPAGE (Invitrogen, Carlsbad, Calif., USA) gels and were blotted onto Immobilon FL PVDF (Millipore, Billerica, Mass., USA). […] After three washes in TBS-T and a final wash in TBS the blots were scanned using the LI-COR Odyssey (LI-COR, Lincoln, Nebr., USA) and quantified using Odyssey 2.0 software based on direct fluorescence measurement.
For acute signaling studies, rats were injected ICV with either aCSF, 20 μg of HN or F6A (dissolved in aCSF) over 5 min, and sacrificed 30 min later. […] Samples were also obtained from these tissues at the end of the clamp and western blot analysis was performed as described previously (Muzumdar et al. 2003) The blots were scanned using the LI-COR Odyssey (LI-COR, Lincoln, Nebr., USA) and quantified using Odyssey 2.0 software based on direct fluorescence measurement. […]

[2] = system: pAKT and pSTAT-3 in hepatocytes; test: Western blot of Phospho-STAT3 and Phospho-AKT in primary hepatocytes; assay type: cell-based, rat
Description: Single-cell suspensions of hepatocytes were obtained from perfusions of Sprague-Dawley rats using the procedure of Berry and Friend (1969) and the perfusion mixture of Leffert et al (1979). Hepatocyte glucose production was estimated after a 24 hr treatment with HN, F6A and saline as described before (Berg et al. 2001). In a separate set of experiment, hepatocytes were lysed, and protein extracted in RIPA lysis buffer at 30, 60 and 360 min post treatment with FIN, F6A and saline. The cell lysates were then subject to western blotting for Phospho-STAT3 (Tyr705), total-STAT3, Phospho-AKT (Ser473), and total-AKT expression (antibodies purchased from Cell Signaling, #9131, #9132, #9271, #9272).

- pAKT or pSTAT-3 in hepatocytes [2]: did not elicit significant changes
SMILES: CC[C@H](C)[C@H](NC(=O)[C@H](CCC(=O)O)NC(=O)[C@H](CO)NC(=O)[C@@H](NC(=O)[C@H](CC(C)C)NC(=O)[C@H](CC(C)C)NC(=O)[C@H](CC(C)C)NC(=O)[C@H](CC(C)C)NC(=O)[C@H](CS)NC(=O)[C@H](CO)NC(=O)[C@H](Cc1ccccc1)NC(=O)CNC(=O)[C@H](CCCNC(=N)N)NC(=O)[C@@H]1CCCN1C(=O)[C@H](C)NC(=O)[C@@H](N)CCSC)[C@@H](C)O)C(=O)N[C@@H](CC(=O)O)C(=O)N[C@@H](CC(C)C)C(=O)N1CCC[C@H]1C(=O)N[C@H](C(=O)N[C@@H](CCCCN)C(=O)N[C@@H](CCCNC(=N)N)C(=O)N[C@@H](CCCNC(=N)N)C(=O)N[C@@H](C)C(=O)O)C(C)C [Humanin, maprgfscll lltseidlpv krra]
- pAKT and acetyl CoA carboxylase in muscle compared to aCSF [1]: significantly increased
